Measured values taken from patent publication US8815585B2, “Automated method and apparatus for embryonic stem cell culture” (Cellular Dynamics International, Inc., priority 2007, dated 2014).
“Also recorded” adds a separate entry of the source.

What was measured:
HES cells [1] = assay: Survival of HES cells after trypsin treatment, individualized and seeded in TeSR medium; format: cell-based, human; details: 0.1% trypsin; seeding onto Matrigel coated plates in TeSR medium
Description: The inventors utilized the system described in Example 1 and developed procedures for passaging of HES cells that were based on simple liquid handling protocols. Recent innovations in splitting techniques allowed for efficient automation of this otherwise demanding manual procedure. Since HES cells require cell-cell contacts for survival in TeSR media, they needed to be seeded in clumps which required scraping of attached cells, a procedure which would be very hard to automate.
For automated passaging, the following procedure was developed: After retrieval of the mother plate from the incubator, the wash tool removes the spent media as described in aim 1. The 8-channel 200 μl pipetting tool MP200 is used to add […] of trypsin (0.1%). […] The cells are washed off the plate surface and mixed using the 8-channel MP200 tool by repetitive dispensing and aspiration. Cells are then dispensed to the daughter plates using the MP200 tool. The cells are then seeded 1 to 32 onto precoated Matrigel plates loaded from the stacker to the Biomek2000. […] The total surface area of the initially used Omnitray turned out to be too large for the throughput of the system at the stage of the next split once the inventors tested methods for passaging HES cells in aim 2. […]

HES cells [2] = assay: Seeding and colony formation of individualized HES cells in 96-well plates; format: cell-based, human
Description: For this purpose however the inventors plated 16,000 cells per well, which is a 5-fold higher seeding density, than in the regular propagation and maintenance of undifferentiated HES cells with the automated procedure.

HES cells [3] = details: Watanabe et al. Nat Biotech (2007); cited from earlier work

## Cc1cncc2cccc(S(=O)(=O)N3CCCNCC3C)c12 (stereo in doubt) [H-1152, (S)-(+)-2-Methyl-1-[(4-methyl-5-isoquinolinyl)sulfonyl]homopiperazine]
HES cells [1]
  survival of HES cells after trypsin treatment: allow the survival of HES cells after trypsin treatment
HES cells [2]; 96-well plates
  seeding of individualized HES cells in 96-well plates: allows for very efficient seeding of individualized HES cells in 96-well plates; also recorded: allows for very efficient seeding of individualized human ES cells in 96-well plates
HES cells [2]; TeSR1 media
  colony formation of HES cells from individualized cells: actively increased colony formation

## O=S(=O)(c1cccc2cnccc12)N1CCNCC1 [HA-100]
HES cells [3]
  ability to maintain HES cell growth: supports the ability of HA-100 to maintain HES cell growth
HES cells [1]
  survival of HES cells after trypsin treatment: allow the survival of HES cells after trypsin treatment
